Test [1] concerns crabgrass. As to the kind of experiment: Test A crabgrass. Type of test: in vivo, Digitaria spp. The settings on record: 0 to 10 scale where 0 is no effect and 10 is complete control. Summed up: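 Visual injury score, 0 (no effect) to 10 (complete control), vs untreated controls at ~11 d in greenhouse. Pre: soil drench on sandy loam. Post: spray to runoff, 1–2 leaf stage.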
Test [2] has as its system cocklebur. As to the kind of experiment: Test C postemergence cocklebur. The class given is in vivo, Xanthium strumarium. Conditions: 0 to 100 scale, 0 no effect, 100 complete control. How it is done:
(§1) Compounds evaluated in this test were formulated in a non-phytotoxic solvent mixture which included a surfactant and applied to plants that were grown for various periods of time before treatment (postemergence application). A mixture of sandy loam soil and greenhouse potting mix in a 60:40 ratio was used for the postemergence test.
(§2) Plantings of these crops and weed species were adjusted to produce plants of appropriate size for the postemergence test. All plant species were grown using normal greenhouse practices. Crop and weed species include arrowleaf sida (Sida rhombifolia), barnyardgrass (Echinochloa crus-galli), cocklebur (Xanthium strumarium), common ragweed (Ambrosia elatior), corn (Zea mays), cotton (Gossypium hirsutum), eastern black nightshade (Solanum ptycanthum), fall panicum (Panicum dichotomiflorum), field bindweed (Convolvulus arvensis), giant foxtail (Setaria faberii), hairy beggarticks (Bidens pilosa), ivyleaf morningglory (Ipomoea hederacea), johnsongrass (Sorghum halepense), ladysthumb smartweed (Polygonum persicaria), lambsquarters (Chenopodium album), large crabgrass (Digitaria sanguinalis), purple nutsedge (Cyperus rotundus), redroot pigweed (Amaranthus retroflexus), soybean (Glycine max), surinam grass (Brachiaria decumbens), velvetleaf (Abutilon theophrasti) and wild poinsettia (Euphorbia heterophylla).
(§3) Treated plants and untreated controls were maintained in a greenhouse for approximately 14, to 21 days, after which all treated plants were compared to untreated controls and visually evaluated. Plant response ratings, summarized in Table C, were based upon a 0 to 100 scale where 0 was no effect and 100 was complete control. A dash response (−) means no test result.

Test [3] has as its system common ragweed. As to the kind of experiment: Test C postemergence common ragweed. Conditions: 0 to 100 scale, 0 no effect, 100 complete control. Type of test: in vivo, Ambrosia elatior. In a few lines:
(§4)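 Compounds in a non-phytotoxic solvent mixture with surfactant were sprayed postemergence on greenhouse-grown plants sized for treatment, in 60:40 sandy loam soil:potting mix. After about 14 to 21 days, injury was rated visually against untreated controls on a 0–100 scale (0 no effect, 100 complete control).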

Test [4] deals with cotton. As to the kind of experiment: Test C postemergence cotton. The class given is in vivo, Gossypium hirsutum. Conditions: 0 to 100 scale, 0 no effect, 100 complete control. How it is done: as §1, §2, §3
Test [5] relates to eastern black nightshade. As to the kind of experiment: Test C postemergence eastern black nightshade. The class given is in vivo, Solanum ptycanthum. Conditions: 0 to 100 scale, 0 no effect, 100 complete control. As for the experimental part:
as §1, §2, §3

The subject of test [6] is giant foxtail. As to the kind of experiment: Test C postemergence giant foxtail. The class given is in vivo, Setaria faberii. Conditions: 0 to 100 scale, 0 no effect, 100 complete control. In a few lines: as §4
The subject of test [7] is johnsongrass. Put plainly: Test C postemergence johnsongrass. Type of test: in vivo, Sorghum halepense. The settings on record: 0 to 100 scale, 0 no effect, 100 complete control. As for the experimental part: as §1, §2, §3
In test [8] the test system is large crabgrass. As to the kind of experiment: Test C postemergence large crabgrass. The class given is in vivo, Digitaria sanguinalis. The settings on record: 0 to 100 scale, 0 no effect, 100 complete control. How it is done:
as §1, §2, §3

For test [9], the system named is purple nutsedge. Put plainly: Test C postemergence purple nutsedge. The settings on record: 0 to 100 scale, 0 no effect, 100 complete control. The class given is in vivo, Cyperus rotundus. Summed up:
as §4

The subject of test [10] is soybean. As to the kind of experiment: Test C postemergence soybean. The settings on record: 0 to 100 scale, 0 no effect, 100 complete control. Type of test: in vivo, Glycine max. As for the experimental part: as §1, §2, §3
In test [11] the test system is velvetleaf. Put plainly: Test C postemergence velvetleaf. The class given is in vivo, Abutilon theophrasti. Conditions: 0 to 100 scale, 0 no effect, 100 complete control. Summed up: as §4
The test system of test [12] is wild poinsettia. As to the kind of experiment: Test C postemergence wild poinsettia. Type of test: in vivo, Euphorbia heterophylla. The settings on record: 0 to 100 scale, 0 no effect, 100 complete control. In a few lines:
as §4

Consider three compounds from US6737383B1, “Herbicidal oxadiazolidines” (priority 1999, dated 2004).

For the compound `Cc1ccccc1-n1c(=O)on(C(=O)N(C2=CCOCC2)C(C)C)c1=O` [Compound 10], the “Plant response rating, Crabgrass” value in test [1] (Postemergence, Rate 1000 g/ha) worked out at 8; in [1] (Pre-emergence, Rate 2000 g/ha), 9.

Consider `C=CCn1c(=O)on(C(=O)N(c2ccccc2)C(C)C)c1=O` [Compound 93], for which the “Plant response rating, Cocklebur” value was 0 in [2] (Rate 140 g/ha), 35 in [2] (Rate 280 g/ha) and 40 in test [2] (Rate 560 g/ha). The “Plant response rating Common ragweed” value is given as 5 in test [3] (Rate 140 g/ha), 10 in [3] (Rate 280 g/ha), 10 in test [3] (Rate 560 g/ha) and 20 in test [3] (Rate 1120 g/ha). Besides, the “Plant response rating Cotton” value in test [4] (Rate 140 g/ha) is reported as 15; in test [4] (Rate 280 g/ha) it was 30; in [4] (Rate 560 g/ha) it was 70; in test [4] (Rate 1120 g/ha), 85. The “Plant response rating E. blacknightsh” value in [5] (Rate 140 g/ha) came to 10; in test [5] (Rate 280 g/ha), 40; in test [5] (Rate 1120 g/ha), 85. Also, the “Plant response rating, Giant foxtail” value in test [6] (Rate 140 g/ha) stood at 10; in test [6] (Rate 280 g/ha), 55; in test [6] (Rate 560 g/ha), 80; in test [6] (Rate 1120 g/ha) it was 95. In addition, the “Plant response rating, Johnsongrass” value in [7] (Rate 140 g/ha) is given as 0; in test [7] (Rate 280 g/ha), 5; in test [7] (Rate 560 g/ha), 85; in [7] (Rate 1120 g/ha), 90. Further, the “Plant response rating, Large crabgrass” value in [8] (Rate 140 g/ha) was 0; in test [8] (Rate 280 g/ha) it was 30; in test [8] (Rate 560 g/ha), 50; in test [8] (Rate 1120 g/ha), 95. Moreover, the “Plant response rating, Purple nutsedge” value in test [9] (Rate 140 g/ha) is 0; in [9] (Rate 280 g/ha), 0; in test [9] (Rate 560 g/ha) it was 0; in [9] (Rate 1120 g/ha), 10. For the same compound, the “Plant response rating, Soybean” value in [10] (Rate 140 g/ha) is reported as 40; in test [10] (Rate 280 g/ha), 60; in test [10] (Rate 560 g/ha), 80; in [10] (Rate 1120 g/ha), 85. The “Plant response rating, Velvetleaf” value in [11] (Rate 140 g/ha) came out at 0; in [11] (Rate 280 g/ha), 5; in test [11] (Rate 560 g/ha), 40; in test [11] (Rate 1120 g/ha), 70. Besides, the “Plant response rating Wild poinsettia” value was 0 in [12] (Rate 140 g/ha), 0 in test [12] (Rate 280 g/ha), 30 in test [12] (Rate 560 g/ha) and 70 in test [12] (Rate 1120 g/ha).

With `CC(C)N(C(=O)n1oc(=O)n(C2CCCCC2C(F)(F)F)c1=O)c1ccc(F)cc1` (stereo not shown) [Compound 99], the “Plant response rating, Crabgrass” value in [1] (Postemergence, Rate 1000 g/ha) was 7; in test [1] (Pre-emergence, Rate 2000 g/ha), 10.
